“And” between values parts separate entries of the source, which are not always exact repeats. Equal values may be shown once.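 All cell lines were grown in 96-well plates and treated with compound for 48 hours. Abbreviation: GI50, concentration required for 50% inhibition of growth.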 The source made the active and inactive calls. No stated cut-off is given here; in the data, active = GI50 up to about 1.1 µM and inactive = higher.
Assays:
Experiment in all cases: DTP human tumour cell line panel, 48 h
[1] = test system: HCT-116
[2] = test system: SF-539
[3] = test system: MDA-MB-435
[4] = test system: HOP-92
[5] = test system: DU-145
[6] = test system: MDA-MB-231
[7] = test system: MDA-N
[8] = test system: MCF7
[9] = test system: Malme-3M
[10] = test system: UACC-62
[11] = test system: RPMI-8226
[12] = test system: OVCAR-4
[13] = test system: M14
[14] = test system: U-251
[15] = test system: A549
[16] = test system: HL-60
[17] = test system: OVCAR-8
[18] = test system: 786-0
[19] = test system: UACC-257
[20] = test system: K562

| Structure (SMILES) | GI50 [1] | GI50 [2] | GI50 [3] | GI50 [4] | GI50 [5] | GI50 [6] | GI50 [7] | GI50 [8] | GI50 [9] | GI50 [10] | GI50 [11] | GI50 [12] | GI50 [13] | GI50 [14] | GI50 [15] | GI50 [16] | GI50 [17] | GI50 [18] | GI50 [19] | GI50 [20] |
| --- | --- | --- | --- | --- | --- | --- | --- | --- | --- | --- | --- | --- | --- | --- | --- | --- | --- | --- | --- | --- |
| NCCCN1CCN(CC(=O)O)CCN(CCCN)CCN(CC(=O)O)CC1 | > 100 µM (inactive) | 68.1 µM (inactive) | > 100 µM (inactive) | > 100 µM (inactive) | > 100 µM (inactive) | > 100 µM (inactive) | > 35.9 µM (inactive) | 44.1 µM (inactive) | 25.5 µM (inactive) | > 56.9 µM (inactive) | 17.4 µM (inactive) | > 100 µM (inactive) | 82.6 µM (inactive) | > 100 µM (inactive) | 5.52 µM (inactive) | 15.3 µM (inactive) | > 86.1 µM (inactive) | 6.93 µM (inactive) | > 100 µM (inactive) | 6.67 µM (inactive) |
| Cc1cn(C2CC(N(O)Cc3ccccc3)C(CO[Si](C)(C)C(C)(C)C)O2)c(=O)[nH]c1=O (centres undefined) | 16.2 µM (inactive) and 19.1 µM (inactive) | 15.5 µM (inactive) and 18.1 µM (inactive) | 17.9 µM (inactive) and 18 µM (inactive) | 16 µM (inactive) and 18.7 µM (inactive) | 17.8 µM (inactive) and 25.4 µM (inactive) | 16.8 µM (inactive) and 16.5 µM (inactive) | 18.9 µM (inactive) and 17.4 µM (inactive) | 19.6 µM (inactive) and 30.9 µM (inactive) | 17.9 µM (inactive) | 12.2 µM (inactive) and 16.4 µM (inactive) | 30.6 µM (inactive) | 23.7 µM (inactive) and 17.4 µM (inactive) | 16.6 µM (inactive) and 19.5 µM (inactive) | 15.1 µM (inactive) and 19.6 µM (inactive) |  | 29.8 µM (inactive) and 36.5 µM (inactive) | 17.8 µM (inactive) and 25.7 µM (inactive) | 17.4 µM (inactive) and 15.6 µM (inactive) | 16.4 µM (inactive) and 26.4 µM (inactive) | 24.4 µM (inactive) and 27 µM (inactive) |
| CC(C)(C)C1CCC2c3c([nH]c4ccccc34)C3C(=O)N(c4ccc(C#N)cc4)C(=O)C3C2C1 (centres undefined) | 5.43 µM (inactive) | 18.7 µM (inactive) | 26.3 µM (inactive) | 4.54 µM (inactive) | 13.6 µM (inactive) | 15.3 µM (inactive) | 11.9 µM (inactive) | 29.5 µM (inactive) | 17.3 µM (inactive) | 5.81 µM (inactive) | 21.3 µM (inactive) |  | 16.1 µM (inactive) | 15.8 µM (inactive) | 8.43 µM (inactive) | 3.42 µM (inactive) | 14.5 µM (inactive) | 12 µM (inactive) | 20.2 µM (inactive) | 6.22 µM (inactive) |
| O=C(CCN1CCOCC1)c1ccc(Oc2ccc(F)cc2)cc1 | 22.5 µM (inactive) | 17.9 µM (inactive) | 37.6 µM (inactive) | 28.1 µM (inactive) | 36 µM (inactive) | 19.6 µM (inactive) | 23.8 µM (inactive) | 18.7 µM (inactive) | 20.4 µM (inactive) | 18.6 µM (inactive) |  | 33.6 µM (inactive) | 18.4 µM (inactive) | 53.2 µM (inactive) | > 100 µM (inactive) | 35.5 µM (inactive) | 19.4 µM (inactive) | 17.1 µM (inactive) | 17.7 µM (inactive) | 23.6 µM (inactive) |
| Cn1c(=O)cc(NNc2ccc(Cl)c(Cl)c2)[nH]c1=O | 7.19 µM (inactive) | 15.1 µM (inactive) | 3.31 µM (inactive) | 14.9 µM (inactive) | 17.5 µM (inactive) | 10.8 µM (inactive) | 9.06 µM (inactive) | 6.41 µM (inactive) | > 10 µM (inactive) | 1.71 µM (inactive) | > 10 µM (inactive) | 10.7 µM (inactive) | 5.25 µM (inactive) | 12.4 µM (inactive) | 16.2 µM (inactive) | 8 µM (inactive) | 13.6 µM (inactive) | 12.4 µM (inactive) | 14.9 µM (inactive) | 2.04 µM (inactive) |
| CC(C)C1OCC(CO)CO1 (centres undefined) | > 100 µM (inactive) | > 100 µM (inactive) | > 100 µM (inactive) | > 100 µM (inactive) | > 100 µM (inactive) | > 100 µM (inactive) | > 100 µM (inactive) | > 100 µM (inactive) | > 100 µM (inactive) | > 100 µM (inactive) | > 100 µM (inactive) | > 100 µM (inactive) | > 100 µM (inactive) | > 100 µM (inactive) | > 100 µM (inactive) | > 100 µM (inactive) | > 100 µM (inactive) | > 100 µM (inactive) | > 100 µM (inactive) |  |
| Cc1cn(CCC(N)C(=O)O)c(=O)[nH]c1=O (centres undefined) | > 100 µM (inactive) | > 100 µM (inactive) | > 100 µM (inactive) | > 100 µM (inactive) | > 100 µM (inactive) | > 100 µM (inactive) | > 100 µM (inactive) | > 100 µM (inactive) | > 100 µM (inactive) | > 100 µM (inactive) | > 100 µM (inactive) | > 100 µM (inactive) | > 100 µM (inactive) | > 100 µM (inactive) | > 100 µM (inactive) | > 100 µM (inactive) | > 100 µM (inactive) | > 100 µM (inactive) | > 100 µM (inactive) | > 100 µM (inactive) |
| CC(C)=CCC[C@@H](C)C1=C(N)C(=O)C(C)=C(O)C1=O | 27.6 µM (inactive) | 41.7 µM (inactive) | 44.8 µM (inactive) | 57.4 µM (inactive) | > 75 µM (inactive) | 67.5 µM (inactive) | 51.3 µM (inactive) | 61.5 µM (inactive) | 56.9 µM (inactive) | 31.1 µM (inactive) | 39.8 µM (inactive) | 35.7 µM (inactive) | 38.7 µM (inactive) | 31.8 µM (inactive) | 32.6 µM (inactive) | 13 µM (inactive) | 22.4 µM (inactive) | 43.7 µM (inactive) | > 75 µM (inactive) | 35.7 µM (inactive) |
| CC1(COS(=O)(=O)OCC2(C)COS(=O)(=O)OC2)COS(=O)(=O)OC1 | > 52.6 µM (inactive) | > 100 µM (inactive) | > 41.2 µM (inactive) | 10.3 µM (inactive) | > 36.5 µM (inactive) | > 73.6 µM (inactive) | > 72.4 µM (inactive) | > 22.3 µM (inactive) | > 83 µM (inactive) | > 61.8 µM (inactive) | > 20.2 µM (inactive) | > 60.8 µM (inactive) | > 51.4 µM (inactive) | > 38.1 µM (inactive) | > 28.8 µM (inactive) | > 35.1 µM (inactive) | > 48.3 µM (inactive) | > 50.8 µM (inactive) | > 75 µM (inactive) | > 26.2 µM (inactive) |
| COC(=O)[C@@H](NC1(c2ccccc2)c2ccccc2-c2ccccc21)[C@H](OC(=O)[C@H]1CCCN1S(=O)(=O)c1ccccc1)C(=O)OC | > 100 µM (inactive) | > 100 µM (inactive) | > 100 µM (inactive) | < 0.01 µM (active) | > 100 µM (inactive) | > 100 µM (inactive) | 72.9 µM (inactive) | > 100 µM (inactive) | > 100 µM (inactive) | > 100 µM (inactive) |  | > 100 µM (inactive) | > 100 µM (inactive) | > 100 µM (inactive) | > 100 µM (inactive) | > 100 µM (inactive) | > 100 µM (inactive) | > 100 µM (inactive) | > 100 µM (inactive) | > 100 µM (inactive) |
| C[n+]1c(/C=C/c2ccc(O)c3ncccc23)[se]c2ccccc21 | 2.58 µM (inactive) | 2.86 µM (inactive) | 6.34 µM (inactive) | 4.22 µM (inactive) | 4.26 µM (inactive) | 0.406 µM (active) | 5.98 µM (inactive) | 1.58 µM (inactive) | 4.01 µM (inactive) | 3.14 µM (inactive) | 5.01 µM (inactive) | 4.2 µM (inactive) | 4.67 µM (inactive) | 2.88 µM (inactive) | 7.06 µM (inactive) | 2.55 µM (inactive) | 2.87 µM (inactive) | 2.99 µM (inactive) | 2.29 µM (inactive) | 5.11 µM (inactive) |
| Cn1cc(NC(=O)Nc2cc(C(=O)Nc3cc(C(=O)Nc4ccc5cc(S(=O)(=O)O)cc(S(=O)(=O)O)c5c4)n(C)c3)n(C)c2)cc1C(=O)Nc1cc(C(=O)Nc2ccc3cc(S(=O)(=O)O)cc(S(=O)(=O)O)c3c2)n(C)c1 | > 100 µM (inactive) | > 100 µM (inactive) | > 100 µM (inactive) | 90.8 µM (inactive) | > 100 µM (inactive) | > 100 µM (inactive) | > 100 µM (inactive) | > 100 µM (inactive) | > 100 µM (inactive) | > 100 µM (inactive) | > 100 µM (inactive) | > 100 µM (inactive) | 91.4 µM (inactive) | > 100 µM (inactive) | 84.9 µM (inactive) | > 100 µM (inactive) | > 100 µM (inactive) | > 100 µM (inactive) | > 100 µM (inactive) | > 100 µM (inactive) |
| C=C(CC[C@@H](C(=O)O)[C@H]1[C@H](O)C[C@@]2(C)C3=CC[C@@H](C(=C)C)[C@](C)(CCC(=O)O)C3=CC[C@]12C)C(C)C [PORICOIC ACID A] | 16.4 µM (inactive) | 20 µM (inactive) | 18.8 µM (inactive) | 16.6 µM (inactive) | 20.6 µM (inactive) | 20.8 µM (inactive) | 16.9 µM (inactive) | 17.1 µM (inactive) | 22.5 µM (inactive) | 15.3 µM (inactive) |  | 21.1 µM (inactive) | 17.9 µM (inactive) | 18 µM (inactive) | 18.7 µM (inactive) | 15.9 µM (inactive) | 19.5 µM (inactive) | 16.6 µM (inactive) | 16.4 µM (inactive) | 26.5 µM (inactive) |

From ChEMBL document CHEMBL1201862, “PubChem BioAssay data set” (2004)
